This is an account of results in PubChem BioAssay (NCI).

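Tested at 5 concentrations; 48 h exposure; 96-well plates; endpoints linearly interpolated, else capped at highest concentration. TGI is the concentration that stops growth completely.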

Some test systems named below: K-562 leukemia; LOX IMVI melanoma; SNB-19 CNS; 786-0 renal; RPMI-8226 leukemia; DU-145 prostate; U251 CNS; IGROV1 ovarian; TK-10 renal; RXF 393 renal.
Holding throughout (assay): DTP human tumour cell line panel, 48 h

With `OC(O)(C(F)(F)F)C(F)(F)F`, the TGI with K-562 leukemia, in the assay on LOX IMVI melanoma, in the assay with SNB-19 CNS, in the assay with 786-0 renal, with RPMI-8226 leukemia and in the assay on DU-145 prostate was above 100 µM throughout. Further, the TGI in the assay on U251 CNS, with IGROV1 ovarian, in the assay on TK-10 renal and with RXF 393 renal was above 100 µM throughout.
Consider `CC1(C)CC2(C)OC(=N)C1(C#N)C2(C#N)C#N` (stereo not given), for which the TGI (in general, the concentration giving total growth inhibition) was 33.5 µM in the assay on K-562 leukemia; 3.09 µM with LOX IMVI melanoma; 31 µM in the assay with SNB-19 CNS; 16.7 µM in the assay with 786-0 renal; 23.7 µM in the assay with RPMI-8226 leukemia; 27.7 µM with DU-145 prostate. For the same compound, the TGI with U251 CNS was 29.3 µM; with IGROV1 ovarian, 29.9 µM; with TK-10 renal, 22.7 µM; in the assay on RXF 393 renal it was 27.2 µM.
For the compound `C=C1C(=O)O[C@H]2C3C(=C(C)CC[C@@H]12)C(=O)[C@@H]1OC31C` (stereo not given in full), the TGI turned out to be 5.35 µM in the assay on K-562 leukemia; 5.79 µM with LOX IMVI melanoma; 29.5 µM in the assay on SNB-19 CNS; 3.26 µM in the assay with 786-0 renal; 3.62 µM with RPMI-8226 leukemia; 25.8 µM with DU-145 prostate. Further, the TGI with U251 CNS stood at 26.3 µM; with IGROV1 ovarian, 11.8 µM; with TK-10 renal, 4.4 µM; in the assay with RXF 393 renal, 2.99 µM.
For `Cn1c(=O)c2[nH]c(CCC(=O)O)nc2n(C)c1=O`, the concentration for total growth inhibition (TGI) in the assay on K-562 leukemia, in the assay on LOX IMVI melanoma, in the assay on SNB-19 CNS, in the assay on 786-0 renal, in the assay on RPMI-8226 leukemia and with DU-145 prostate was above 100 µM in each case. For the same compound, the TGI in the assay on U251 CNS, in the assay with IGROV1 ovarian, in the assay with TK-10 renal and with RXF 393 renal was above 100 µM in each case.
In the case of `COC(=O)C(C(=O)OC)C1CC(=O)c2c(Br)sc(Br)c21` (stereo not given), the TGI in the assay on K-562 leukemia is 53.5 µM; in the assay on LOX IMVI melanoma, 26.7 µM; in the assay with SNB-19 CNS, 47.3 µM; in the assay on 786-0 renal it was above 100 µM; in the assay on RPMI-8226 leukemia, 26.4 µM; with DU-145 prostate it was 34.8 µM. Besides, the TGI in the assay with U251 CNS worked out at 29.8 µM; in the assay with IGROV1 ovarian it was 29.3 µM; in the assay on TK-10 renal, 86.7 µM; in the assay with RXF 393 renal, 84.4 µM.
On to `COc1cc(S(=O)(=O)N/N=C/c2cc(Br)c(O)c(OC)c2)c(OC)cc1NC(C)=O`, for which the TGI with K-562 leukemia was above 100 µM; in the assay on LOX IMVI melanoma, above 100 µM; with SNB-19 CNS, above 100 µM; with 786-0 renal it was 66.5 µM; with RPMI-8226 leukemia, above 100 µM; with DU-145 prostate it was above 100 µM. Besides, the TGI in the assay with U251 CNS, with IGROV1 ovarian, in the assay on TK-10 renal and with RXF 393 renal was above 100 µM throughout.
Consider `COc1cc(-c2[o+]c3cc(O)cc(OC4OC(CO)C(O)C(O)C4O)c3cc2OC2OC(CO)C(O)C(O)C2O)cc(OC)c1O` (stereo not given), for which the concentration for total growth inhibition (TGI) with K-562 leukemia, with LOX IMVI melanoma, in the assay on SNB-19 CNS, in the assay with 786-0 renal, in the assay with RPMI-8226 leukemia and in the assay with DU-145 prostate was above 100 µM throughout. Moreover, the TGI with U251 CNS, in the assay with IGROV1 ovarian, in the assay on TK-10 renal and in the assay with RXF 393 renal was above 100 µM in each case.
Regarding `COc1cc2c(cc1O)CC[C@@H]1C2CC[C@@]2(C)C1CC[C@@H]2O` (stereo not given in full), the TGI in the assay on K-562 leukemia is 26.1 µM; with LOX IMVI melanoma, above 100 µM; with SNB-19 CNS, above 100 µM; in the assay with 786-0 renal it was above 100 µM; with RPMI-8226 leukemia it was 13.5 µM; with DU-145 prostate, above 100 µM. The concentration for total growth inhibition (TGI) in the assay with U251 CNS was above 62.4 µM; in the assay with IGROV1 ovarian it was above 100 µM; in the assay on TK-10 renal, above 94.1 µM; in the assay on RXF 393 renal, 57.6 µM.
Consider `CCOC(=O)c1cc(-c2ccn(C(C)=O)c2)c(-c2cc(C)co2)[nH]1`, for which the concentration for total growth inhibition (TGI) with K-562 leukemia, in the assay on LOX IMVI melanoma, in the assay with SNB-19 CNS, in the assay with 786-0 renal, with RPMI-8226 leukemia and with DU-145 prostate was above 100 µM each time. The TGI in the assay on U251 CNS, in the assay on IGROV1 ovarian, in the assay on TK-10 renal and in the assay on RXF 393 renal was above 100 µM throughout.
For the compound `CCOC(=O)CCC(C(=O)OCC)n1nnc2cc(Nc3c(C)[n+]([O-])c4ccc(Cl)cc4[n+]3[O-])ccc21` (stereo not given), the concentration for total growth inhibition (TGI) with K-562 leukemia, in the assay with LOX IMVI melanoma, in the assay with SNB-19 CNS, in the assay with 786-0 renal, in the assay on RPMI-8226 leukemia and in the assay on DU-145 prostate was above 100 µM throughout. Besides, the TGI in the assay with U251 CNS, with IGROV1 ovarian, in the assay with TK-10 renal and in the assay on RXF 393 renal was above 100 µM each time.
For `CC1(O)C(=O)OC2CC([C@]3(O)CCC4[C@@H]5C[C@H]6O[C@]67[C@@H](O)C=CC(=O)[C@]7(C)C5CC[C@@]43C)C1(C)C2` (stereo not given in full), the TGI was above 31.6 µM in the assay on K-562 leukemia; 15.7 µM in the assay on LOX IMVI melanoma; above 100 µM in the assay on SNB-19 CNS; 25.6 µM in the assay with 786-0 renal; 19.7 µM in the assay on RPMI-8226 leukemia; 75.2 µM in the assay on DU-145 prostate. For the same compound, the TGI in the assay on U251 CNS was above 72.6 µM; in the assay with IGROV1 ovarian, above 31.6 µM; in the assay on TK-10 renal it was 23.2 µM; with RXF 393 renal, 13.2 µM.
Take `COc1ccc(NS(=O)c2cccc(C)c2)cc1` (stereo not given): the TGI in the assay with K-562 leukemia, in the assay on LOX IMVI melanoma, with SNB-19 CNS, in the assay with 786-0 renal, in the assay with RPMI-8226 leukemia and with DU-145 prostate was above 100 µM each time. The TGI in the assay on U251 CNS, with IGROV1 ovarian, in the assay with TK-10 renal and in the assay on RXF 393 renal was above 100 µM in each case.
Regarding `CCCC(=O)OC1CC(n2cc(F)c(=O)[nH]c2=O)OC1CO` (stereo not given), the TGI in the assay on K-562 leukemia was above 10 µM; with LOX IMVI melanoma it was above 10 µM; in the assay on SNB-19 CNS, above 10 µM; with 786-0 renal it was above 10 µM; with RPMI-8226 leukemia it was above 10 µM; in the assay on DU-145 prostate it was above 3.23 µM. In addition, the TGI in the assay on U251 CNS was above 10 µM; with IGROV1 ovarian, above 10 µM; in the assay on TK-10 renal, above 8.81 µM; in the assay on RXF 393 renal it was above 10 µM.
